Peptide text beside a SMILES is read from it.
Assays:
[1] = system: CD8+ T cells; experiment: peptide:MHC multimer/tetramer staining of enriched T cells (flow cytometry); format: cell-based, human; conditions: for pMHC staining % pMHC+ CD8+ in CD3+: Table 4, enriched T cells after enrichment cycles
Method: Enrichment of epitope-specific CD8 T cells was performed according to the protocol described by Butler et al., Clin Cancer Res.;13(6):1857-1867 (2007), doi:10.1158/1078-0432, but included the following amendments. CD8+ T lymphocytes were collected from PBMCs by magnetic-activated cell sorting (MACS) according to the CD8 isolation kit (Miltenyi Biotec). CD8+ T cells with >95% purity were subsequently cultured in T cell medium supplemented with IL-2 (36 IU/mL; but no gentamycin) for 1 day, after which expansion cycles started. K562ABC cells (kindly provided by prof. Bruce Levine, University of Pennsylvania, PA) were loaded with 10 μg/ml ROPN1 and/or ROPN1B peptide and incubated for 5 h at RT in serum-free medium, after which cells were washed and fixed with 0,1% paraformaldehyde. After washing, K562ABC cells were suspended at 0.1×10^6/mL and co-cultured with T cells in a 1:20 ratio. IL-2 (36 IU/mL) and IL-15 ([…]) were added at days 1 and 3 days after start of co-culture, and after 6 days, T cells were counted, suspended at 2×10^6/mL and rested for 1 day, after which the next cycle commenced (this schedule continued up to 4 or 5 cycles). Following 4 and 5 cycles, T cells were stained with pMHC multimers (HLA*0201/MLN, Immudex, Copenhagen, Denmark). pMHC-PE were pre-incubated at RT for 10 min followed by incubation with 7AAD, anti-CD3-FITC and anti-CD8-APC for 20 min. Cells were fixed with 1% paraformaldehyde and TCR expression was measured with flow cytometry and analyzed using FlowJoX software. FIG. 4A schematically depicts the procedure to enrich epitope-specific T cells, and obtainthe corresponding TCR genes.
Following enrichment, T cells were tested for ROPN1 and/or ROPN1B epitope-specific IFNY production. To this end, T2 cells (1×10^6/mL) were loaded with peptide (20 ng/mL) for 30 min, after which T cells (1×10^5) were cultured in a 1:1 ratio with T2 cells in a round bottom 96-wells plate for 18 h. Supernatant was collected and IFN-γ production was measured with an Enzyme-linked immunosorbent assay (ELISA, BioLegend) according to the manufacturer's protocol (FIG. 9A). T2 cells loaded with an irrelevant peptide were included as a negative control. T cell IFNg production was considered epitope-specific in case levels exceeded 200 pg/ml, and levels were minimally twice as high as for irrelevant peptide (see for full listing of criteria, FIG. 8). T cells that fulfilled these criteria were stained with peptide:MHC (pMHC) tetramers to determine the frequency of epitope-specific T cells. Empty Loadable HLA Tetramers (5 μL, Tetramer shop, Kongens Lyngby, Denmark) were incubated with 0.5 μL peptide (200 μM) for 30 min on ice. Complexes of pMHC were centrifuged (3300 g, 5 min) and incubated with 0.1×10^6 T cells for 15 min at 37° C. in the dark. Next, an antibody cocktail containing CD3-FITC (1:30, BD) and CD8-APC (1:300, eBiosciences) was added and incubated for an additional 30 min at 4° C. in the dark. Finally, T cells were washed twice and fixed with 1% paraformaldehyde (PFA), after which events were acquired with FACSCelesta (BD) and analyzed using FlowJoX software.

[2] = target: peptide:MHC (Homo sapiens, UniProt P04439, D140Y/D185E/D98H/E176V/E277Q/G131W/G231S/I119V/I121R/I166T/I218V/N151K/N90K/P208A/P217A/Q86G/Q94H/R138H/R169H); experiment: TCR gene transfer into healthy donor T cells, surface expression by pMHC staining; format: cell-based; conditions: Table 4; T cells transduced with TCR specific for the epitope
From the text: (§1) Identified TCRα and TCRβ genes were codon optimized (GeneArt, Regensburg, Germany) and cloned into the pMP71 vector (a kind gift of prof. Wolfgang Uckert, MDC, Berlin, Germany) using a TCRβ-2A-TCRα cassette that was flanked by NotI and EcoRI restriction sites. Upon activation with anti-CD3 mAb OKT3, PBMCs from healthy donors were transduced with TCR-encoding retroviruses (pMP71) or empty vector that were produced by a co-culture of 293T and Phoenix-Ampho packaging cells, as described previously in Lamers et al., Cancer Gene Ther.;13(5):503-509 (2006), doi:10.1038/sj.cgt.7700916, and Straetemans G, Clin Dev Immunol, 2012. Staining for surface-expressed TCR transgenes was performed as described above (FIG. 5A,B).
as §1, with “TCRα” for “Identified TCRα”, “TCR13-2A-TCRα” for “TCRβ-2A-TCRα”, “2012.” for “2012. Staining for surface-expressed TCR transgenes was performed as described above (FIG. 5A,B).”
Staining for surface-expressed TCR transgenes was performed as described above. […] Note that for a single epitope (EVI; SEQ ID NO:24) pMHC complexes were insensitive to detect TCR T cells and replaced by stainings with antibodies directed against TCR-Vb7.1 and CD137. The expression of CD137 was measured following 48 h stimulation with EVI epitope-loaded BSM cells, and threshold for inclusion again being expression in more than 5% of cells in the CD3-positive cell population in at least 2 donors.

[3] = system: ROPN1 or ROPN1B over-expressing MDA-MB231 tumor cells; experiment: IFNg production of TCR T cells co-cultured with ROPN1 or ROPN1B over-expressing tumor cells (endogenously processed epitope); format: cell-based, human; conditions: Table 4; responding TCRs / TCRs tested, T cells transduced with TCR specific for the epitope
Method: In a first series of in vitro tests, TCR-transduced T cells (6×10^4/well in a 96-well plate) were co-cultured with ROPN1 or ROPN1B over-expressing MDA-MB231 tumor cells (2×10^4/well) in a total volume of 200 μl of T cell medium for 24 h at 37° C. The ROPN1 or ROPN1B over-expressing tumor cells were generated as described under ‘generation and culture of cell lines and T cells’ (see above), and tumor cells were pre-treated 48 h with IFN-Y before co-culture with T cells. […] T cells that fulfilled these criteria (examples in FIG. 10A) were assessed for their sensitivity towards their cognate epitope. […] EC50 values were calculated using GraphPad Prism 5 software.

Structure (SMILES) | pMHC staining % pMHC+ CD8+ in CD3+ [1] [%] | Surface expression % pMHC+ in CD3+ [2] [%] | T cell responses observed (IFNg) against endogenously presented epitope [3] | enriched T cells binding MLN/HLA-A2 complexes ([1]; after 4 cycles of co-culture with epitope-loaded aAPC) [%] | enriched T cells binding MLN/HLA-A2 complexes ([1]; after 5 cycles of co-culture with epitope-loaded aAPC) [%]
CC[C@H](C)[C@H](NC(=O)[C@H](Cc1ccc(O)cc1)NC(=O)[C@@H](NC(=O)[C@H](Cc1ccc(O)cc1)NC(=O)[C@H](CC(C)C)NC(=O)[C@@H](N)Cc1ccccc1)[C@@H](C)O)C(=O)N[C@@H](C)C(=O)N[C@@H](CCCCN)C(=O)N[C@H](C(=O)O)C(C)C (H-FLYTYIAKV-OH; N-terminus and C-terminus assumed) | 2.76 | 33.2 | 1/1 responses | – | –
CC[C@H](C)[C@H](NC(=O)[C@H](Cc1ccc(O)cc1)NC(=O)[C@H](CC(N)=O)NC(=O)[C@H](CC(C)C)NC(=O)[C@@H](N)CCSC)C(=O)N[C@@H](CCC(=O)O)C(=O)N[C@@H](CCC(N)=O)C(=O)N[C@@H](CCC(=O)O)C(=O)N[C@H](C(=O)O)C(C)C (H-MLNYIEQEV-OH; N-terminus and C-terminus assumed) | 13.3 | 49.7 | 0/2 responses | 20 | 62
CC[C@H](C)[C@H](NC(=O)[C@H](Cc1ccc(O)cc1)NC(=O)[C@@H](NC(=O)[C@H](Cc1ccc(O)cc1)NC(=O)[C@H](CC(C)C)NC(=O)[C@@H](N)Cc1ccccc1)[C@@H](C)O)C(=O)N[C@@H](C)C(=O)N[C@@H](CCC(=O)O)C(=O)N[C@H](C(=O)O)C(C)C (H-FLYTYIAEV-OH; N-terminus and C-terminus assumed) | 1.34 | 5.02 | 1/1 responses | – | –
CSCC[C@H](NC(=O)[C@H](CCC(N)=O)NC(=O)[C@H](C)N)C(=O)N[C@@H](Cc1c[nH]c2ccccc12)C(=O)N[C@@H](CCCCN)C(=O)N[C@H](C(=O)N[C@H](C(=O)N[C@@H](CC(N)=O)C(=O)N[C@@H](CC(C)C)C(=O)O)C(C)C)C(C)C (H-AQMWKVVNL-OH; N-terminus and C-terminus assumed) | 2.58 | 49.7 | 0/1 responses | – | –

Reference: US20240131155A1, “T CELLS FOR USE IN THERAPY” (Erasmus University Medical Center Rotterdam, priority 2021, published 2024)
